Data published in patent US6812346B2, “Substituted pyridines as selective cyclooxygenase-2 inhibitors” (Merck Frosst Canada and Co., priority 1996, dated 2004).
Like-named read-outs stand apart in the source and are kept apart here.

How the values were obtained:
COX-2 = molecular target: T1, COX-2 (Homo sapiens, UniProt P35354); assay: Human whole blood assay, COX-2 (LPS-induced PGE2 production); assay type: cell-based
T1 sequence (P35354 18-604): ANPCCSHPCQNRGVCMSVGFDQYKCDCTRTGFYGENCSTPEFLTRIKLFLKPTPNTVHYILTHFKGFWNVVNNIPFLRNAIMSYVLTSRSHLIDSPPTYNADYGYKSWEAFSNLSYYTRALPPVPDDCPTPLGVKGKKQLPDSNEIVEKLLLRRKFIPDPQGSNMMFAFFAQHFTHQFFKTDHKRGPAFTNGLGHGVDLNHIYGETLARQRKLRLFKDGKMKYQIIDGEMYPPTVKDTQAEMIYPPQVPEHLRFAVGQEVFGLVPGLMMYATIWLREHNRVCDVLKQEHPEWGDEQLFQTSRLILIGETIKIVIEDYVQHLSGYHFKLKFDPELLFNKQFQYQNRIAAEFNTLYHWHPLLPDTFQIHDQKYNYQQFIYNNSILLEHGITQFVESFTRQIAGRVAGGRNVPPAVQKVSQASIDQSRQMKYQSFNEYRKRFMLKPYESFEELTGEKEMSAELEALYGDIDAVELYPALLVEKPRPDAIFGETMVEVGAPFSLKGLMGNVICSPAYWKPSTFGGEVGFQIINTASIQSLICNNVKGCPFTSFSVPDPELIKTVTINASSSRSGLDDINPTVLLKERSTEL
Source text: As well, platelets in whole blood contain a large amount of the COX-1 enzyme. Immediately following blood clotting, platelets are activated through a thrombin-mediated mechanism. This reaction results in the production of thromboxane B2 (TxB2) via activation of COX-1. Thus, the effect of test compounds on TxB2 levels following blood clotting can be examined and used as an index for COX-1 activity. Therefore, the degree of selectivity by the test compound can be determined by measuring the levels of PGE2 after LPS induction (COX-2) and TxB2 following blood clotting (COX-1) in the same assay.
Step A: COX-2 (LPS-induced PGE2 Production)
Fresh blood is collected in heparinized tubes by venipuncture from both male and female volunteers. The subjects have no apparent inflammatory conditions and have not taken any NSAIDs for at least 7 days prior to blood collection. Plasma is immediately obtained from a 2 mL blood aliquot to use as blank (basal levels of PGE2).

COX-1 = molecular target: T2, COX-1 (Homo sapiens, UniProt P23219); assay: Cox-1 U937 (COX-1 activity from U937 cell microsomes); assay type: biochemical; conditions: U937, PGE2 synthesis in presence of AA
T2 construct: Assay of COX-1 Activity from U937 Cell Microsomes; endogenous in cells; host or cells: U937 cells, 100,000 x g microsomal fraction
Method: Assay of COX-1 Activity from U937 Cell Microsomes
U 937 cells are pelleted by centrifugation at 500×g for 5 min and washed once with phosphate-buffered saline and repelleted. Cells are resuspended in homogenization buffer consisting of 0.1 M Tris-HCl, pH 7.4, 10 mM EDTA, 2 μg/ml leupeptin, 2 μg/ml soybean trypsin inhibitor, 2 μg/ml aprotinin and 1 mM phenyl methyl sulfonyl fluoride. The cell suspension is sonicated 4 times for 10 sec and is centrifuged at 10,000×g for 10 min at 4° C. The supernatant is centrifuged at 100,000×g for 1 hr at 4° C. The 100,000×g microsomal pellet is resuspended in 0.1 M Tris-HCl, pH 7.4, 10 mM EDTA to approximately 7 mg protein/ml and stored at −80° C.
Assays are performed in duplicate in a final volume of 250 μl. Initially, 5 μl of DMSO vehicle or drug in DMSO are added to 20 μl of 0.1 M Tris-HCl buffer, pH 7.4 containing 10 mM EDTA in wells of a 96-deepwell polypropylene titre plate. 200 μl of the microsomal preparation are then added and pre-incubated for 15 min at room temperature before addition of 25 μl of […] in […] Tris-HCl and 10 mM EDTA, pH 7.4. Samples are incubated for 40 min at room temperature and the reaction is stopped by the addition of 25 μl of 1 N HCl. Samples are neutralized with 25 μl of 1 N NaOH prior to quantitation of PGE2 content by radioimmunoassay (Dupont-NEN or Amersham assay kits). Cyclooxygenase activity is defined as the difference between PGE2 levels in samples incubated in the presence of arachidonic acid and ethanol vehicle.

[1] = system: carrageenan-induced rat paw edema; assay: Rat paw edema assay; assay type: in vivo; conditions: male Sprague-Dawley rats, po, 1 hr before carrageenan, paw volume 3 hr later; for ED50: Rattus norvegicus
Method: Male Sprague-Dawley rats (150-200 g) are fasted overnight and are given, po, either vehicle (1% methocel or 5% Tween 80) or a test compound. One hr later, a line is drawn using a permanent marker at the level above the ankle in one hind paw to define the area of the paw to be monitored. The paw volume (V0) is measured using a plethysmometer (Ugo-Basile, Italy) based on the principle of water displacement. The animals are then injected subplantarly with 50 μl of 1% carrageenan solution in saline (FMC Corp, Maine) into the paw using an insulin syringe with a 25-gauge needle (i.e. 500 μg carrageenan per paw). Three hr later, the paw volume (V3) is measured and the increases in paw volume (V3-V0) are calculated. The animals are sacrificed by CO2 asphyxiation and the absence or presence of stomach lesions scored. Data is compared with the vehicle-control values and percent inhibition calculated. All treatment groups are coded to eliminate observer bias.

[2] = Cox-1 U937 IC50 over Cox-2 whole blood IC50
[3] = human whole blood, LPS-induced PGE2 production, 24 hours at 37° C., read-out: Cox-2 Whole Blood (IC50)

T2 sequence (P23219 24-599): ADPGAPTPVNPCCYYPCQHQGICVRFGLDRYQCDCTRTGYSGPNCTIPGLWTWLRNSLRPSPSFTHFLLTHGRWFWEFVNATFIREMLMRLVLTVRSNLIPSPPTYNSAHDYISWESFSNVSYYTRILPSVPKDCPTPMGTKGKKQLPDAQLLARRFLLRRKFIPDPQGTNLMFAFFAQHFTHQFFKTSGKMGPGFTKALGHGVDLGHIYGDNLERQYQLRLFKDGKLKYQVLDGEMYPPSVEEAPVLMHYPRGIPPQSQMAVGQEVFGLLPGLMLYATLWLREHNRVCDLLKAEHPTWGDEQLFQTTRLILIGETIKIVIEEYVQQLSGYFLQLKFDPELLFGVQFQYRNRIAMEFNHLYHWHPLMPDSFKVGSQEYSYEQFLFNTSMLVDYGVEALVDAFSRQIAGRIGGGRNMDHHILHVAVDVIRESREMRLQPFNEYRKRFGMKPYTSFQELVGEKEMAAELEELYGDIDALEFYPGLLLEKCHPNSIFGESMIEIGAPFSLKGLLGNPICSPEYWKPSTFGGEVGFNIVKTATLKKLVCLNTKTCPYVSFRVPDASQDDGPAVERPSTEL

SMILES | Selectivity Ratio (COX-2; [2]) | IC50 (COX-2; [3]) [nM] | IC50 (COX-1) [nM] | ED50 [1] [mg/kg] | further results
CS(=O)(=O)c1ccc(-c2cc(Cl)cnc2-c2cccnc2)cc1.Cl [Example 47, 5-Chloro-3-(4-methylsulfonyl)phenyl-2-(3-pyridyl)pyridine hydrochloride] |  |  |  |  | Rat Paw Edema (ED50, mg/kg) [1]: 2.4 mg/kg
CS(=O)(=O)c1ccc(-c2cc(Cl)cnc2-c2cccnc2)cc1 [Example 21, 5-Chloro-3-(4-methylsulfonyl)phenyl-2-(3-pyridinyl)pyridine] | 16 | 1000 | 16000 | 2.3 | 
CS(=O)(=O)c1ccc(-c2cc(Cl)cnc2-c2ccc(C3CC3)nc2)cc1 [Example 73, 5-Chloro-3-(4-methylsulfonyl)phenyl-2-(2-cyclopropyl-5-pyridinyl)pyridine] |  |  | 7000 | 2 | IC50 (COX-2): 1800 nM; Selectivity Ratio (COX-2): 3.8
CS(=O)(=O)c1ccc(-c2cccnc2-c2ccccc2)cc1 [Aa, reference compound] |  |  |  | > 10 | 
CCc1ccc(-c2ncc(Cl)cc2-c2ccc(S(C)(=O)=O)cc2)cn1 [Example 71, 5-Chloro-3-(4-methylsulfonyl)phenyl-2-(2-ethyl-5-pyridinyl)pyridine] |  |  | > 10000 | 1.6 | 
Cc1ccc(-c2ncc(Cl)cc2-c2ccc(S(C)(=O)=O)cc2)cn1.Cl [Example 59, 5-Chloro-3-(4-methylsulfonyl)phenyl-2-(2-methyl-5-pyridinyl)pyridine Hydrochloride] |  |  |  |  | Rat Paw Edema (ED50, mg/kg) [1]: 0.8 mg/kg
CS(=O)(=O)O.CS(=O)(=O)c1ccc(-c2cc(Cl)cnc2-c2cccnc2)cc1 [Example 46, 5-Chloro-3-(4-methylsulfonyl)phenyl-2-(3-pyridyl)pyridine hydromethanesulfonate] |  |  |  |  | Rat Paw Edema (ED50, mg/kg) [1]: 3.3 mg/kg
CS(=O)(=O)c1ccc(-c2cccnc2-c2ccc(F)cc2)cc1 [Ab, reference compound] |  | 4900 | 2200 |  | 

Now from value to compound, other results behind:

Selectivity Ratio (COX-2; [2]) | IC50 (COX-2; [3]) [nM] | IC50 (COX-1) [nM] | SMILES | ED50 [1] [mg/kg] | further results
6 | 500 | 3000 | Cc1cnc(-c2ccccc2)c(-c2ccc(S(C)(=O)=O)cc2)c1 [Example 13, 5-Methyl-3-(4-methylsulfonyl)phenyl-2-phenylpyridine] |  | 
>4.5 | 2200 | > 10000 | CS(=O)(=O)c1ccc(-c2cc(C#N)cnc2-c2ccc(Cl)cc2)cc1 [Example 45, 5-Cyano-2-(4-chlorophenyl)-3-(4-methylsulfonyl)phenylpyridine] | 3 | 
3.3 | 300 | 1000 | CS(=O)(=O)c1ccc(-c2cc(C(F)(F)F)cnc2-c2ccc(F)cc2)cc1 [Example 4, 2-(4-Fluorophenyl)-3-(4-methylsulfonyl)phenyl-5-trifluoromethylpyridine] |  | 
 |  | 5000 | CS(=O)(=O)c1ccc(-c2cc(C(F)(F)F)cnc2-c2cccnc2)cc1 [Example 7, 3-(4-Methylsulfonyl)phenyl-2-(3-pyridinyl)-5-trifluoromethylpyridine] |  | 
 |  | > 10000 | Cc1ccc(-c2ncc(Cl)cc2-c2ccc(S(C)(=O)=O)cc2)cn1 [Example 23, 5-Chloro-3-(4-methylsulfonyl)phenyl-2-(2-methyl-5-pyridinyl)pyridine] |  | 
 | 1200 | > 10000 | CS(=O)(=O)c1ccc(-c2cc(Br)cnc2-c2cccnc2)cc1 [Example 32] | 0.9 | 
4.4 | 300 | 1500 | CS(=O)(=O)c1ccc(-c2cc(C(F)(F)F)cnc2-c2ccccc2)cc1 [Example 1, 3-(4-Methylsulfonyl)phenyl-2-phenyl-5-trifluoromethylpyridine] | 5.4 | 
2 | 700 | 1400 | Cc1cnc(-c2ccc(Cl)cc2)c(-c2ccc(S(C)(=O)=O)cc2)c1 [Example 14, 2-(4-Chlorophenyl)-5-methyl-3-(4-methylsulfonyl)phenylpyridine] |  | 
2 | 900 | 1800 | CS(=O)(=O)c1ccc(-c2cc(C(F)(F)F)cnc2-c2ccc(Cl)cc2)cc1 [Example 3, 2-(4-Chlorophenyl)-3-(4-methylsulfonyl)phenyl-5-trifluoromethylpyridine] |  | 
